Measured values: patent publication EP4818159A1 (Kissei Pharmaceutical Co., Ltd., priority 2023, dated 2025)

Molecular target: T1, human TSHR (Homo sapiens, UniProt P16473)
T1 construct: expressed in transfected cells
Test: Antagonist activity using TSH-induced cAMP production in human TSHR-stably expressing CHO cells
Format: cell-based
Conditions: human TSH final concentration of 50 ng/mL, cAMP production rate
Procedure: Measurement of antagonist activity using TSH-induced cAMP production in human TSHR-stably expressing CHO cells as an indicator
The gene sequence (reference number NM_000369.2) of human TSHR was inserted into the multiple cloning site of pcDNA3.1(+). The prepared plasmid vector was introduced into CHO cells using a lipofection method to establish human TSHR-stably expressing CHO cells. The obtained cells were seeded at 5 x 10^4 cells/well in a 96-well poly-D-lysine-coated plate, and cultured in an F12 culture medium containing 10% FBS, 400 µg/mL of G418, 50 U/mL of penicillin and 50 µg/mL of streptomycin under conditions of 37°C and 5% CO2 for 1 day. The culture medium was removed, and the cells were then washed twice with 100 µL of an assay buffer (Hanks' Balanced Salt Solution containing 20 mM HEPES and 1 mM IBMX) per well. 30 µL of an assay buffer containing a test compound was added to the well, and incubation was performed at room temperature for 15 minutes. Then, 30 µL of an assay buffer containing human TSH (a final concentration of 50 ng/mL, R&D Systems, Inc.) was added, and incubation was performed at 37°C for 1 hour. The supernatant was removed, a Lysis and Detection Buffer 2 (Cisbio) was added, and incubation was performed at room temperature for 1 hour to prepare a cell lysate. According to the instruction manual of a cAMP Gs HiRange kit (Cisbio), the cell lysate, d2-labeled cAMP and anti-cAMP Europium Cryptate labeled antibodies (Cisbio) were reacted in a 384-well white microplate. Then, a fluorescence intensity ratio (measurement wavelength 665 nm/620 nm) was measured using a multi-plate reader (PHERAstar FSX, BMG LABTECH Japan). The fluorescence intensity ratio of each sample was converted to a cAMP content using a standard curve. The cAMP content was converted as a percentage of the control value to calculate a cAMP production rate. The cAMP production rate was plotted against the test compound concentration using Prism (Graph Pad Software Inc.) to calculate the IC50 value. In the tables, IC50<3.0 µM was indicated as A, and 3.0 µM≤IC50<30 µM was indicated as B. If activity was observed but the IC50 value could not be calculated, it was indicated as C.

T1 sequence (P16473 21-764): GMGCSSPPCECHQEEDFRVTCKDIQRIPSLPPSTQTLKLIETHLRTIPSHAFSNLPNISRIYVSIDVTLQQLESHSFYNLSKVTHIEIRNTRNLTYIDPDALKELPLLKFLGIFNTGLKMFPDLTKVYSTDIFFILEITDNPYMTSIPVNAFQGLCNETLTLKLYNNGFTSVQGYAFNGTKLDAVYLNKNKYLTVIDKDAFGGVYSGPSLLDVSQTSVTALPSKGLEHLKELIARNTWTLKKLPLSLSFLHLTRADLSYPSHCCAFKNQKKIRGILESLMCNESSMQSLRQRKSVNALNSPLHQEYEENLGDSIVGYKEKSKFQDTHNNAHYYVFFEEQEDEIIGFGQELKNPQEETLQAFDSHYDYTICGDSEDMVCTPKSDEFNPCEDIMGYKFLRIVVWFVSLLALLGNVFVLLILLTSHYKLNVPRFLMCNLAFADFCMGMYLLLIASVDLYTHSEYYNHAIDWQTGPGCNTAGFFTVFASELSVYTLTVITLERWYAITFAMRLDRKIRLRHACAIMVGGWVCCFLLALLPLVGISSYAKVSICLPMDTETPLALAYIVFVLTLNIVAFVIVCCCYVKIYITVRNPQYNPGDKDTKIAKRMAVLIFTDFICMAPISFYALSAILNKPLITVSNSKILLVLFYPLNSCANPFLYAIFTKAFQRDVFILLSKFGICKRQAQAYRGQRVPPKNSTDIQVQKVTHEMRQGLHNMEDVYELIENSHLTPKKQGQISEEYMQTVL

Q: For `Cc1ccc2c(c1Oc1cc(F)ccc1Cl)N(C)C(=O)[C@H](NC(N)=O)[C@H]2O` (relative stereo) [Example 21, 1-((3R^*,4S^*)-8-(2-chloro-5-fluorophenoxy)-4-hydroxy-1,7-dimethyl-2-oxo-1,2,3,4-tetrahydroquinoline-3-yl)urea], which IC50 is on record?
A: Its IC50 is less than 3 µM.

Q: Which IC50 does the source give for `CN1C(=O)C(C(N)=O)Cc2cc(NC(=O)OC3CCCC3)cc(Oc3ccccc3)c21` (centres unmarked) [Example 1, cyclopentyl (3-carbamoyl-1-methyl-2-oxo-8-phenoxy-1,2,3,4-tetrahydroquinoline-6-yl)carbamate] here?
A: The IC50 was 3 to 30 µM.

Q: How did the IC50 turn out when `CN1C(=O)C(CC(N)=O)Cc2cc(NC(=O)OC3CCCC3)cc(Oc3ccccc3)c21` (centres unmarked) [Example 2, cyclopentyl (3-(2-amino-2-oxoethyl)-1-methyl-2-oxo-8-phenoxy-1,2,3,4-tetrahydroquinoline-6-yl)carbam ate] was run?
A: Its IC50 is less than 3 µM.

Q: For `CN1C(=O)C(CC(N)=O)Cc2cc(NC(=O)OC3CCCC3)cc(Oc3ccccc3C#N)c21` (centres unmarked) [Example 3, cyclopentyl (3-(2-amino-2-oxoethyl)-8-(2-cyanophenoxy)-1-methyl-2-oxo-1,2,3,4-tetrahydroquinoline-6-yl)carbamate], which IC50 is on record?
A: Its IC50 is less than 3 µM.

Q: Which IC50 does the source give for `CN1C(=O)C(NC(N)=O)Cc2cc(NC(=O)OC3CCCC3)cc(Oc3ccccc3C#N)c21` (centres unmarked) [Example 4, cyclopentyl (8-(2-cyanophenoxy)-1-methyl-2-oxo-3-ureido-1,2,3,4-tetrahydroquinoline-6-yl)carbamate] here?
A: The IC50 was less than 3 µM.

Q: Which IC50 does the source give for `CN1C(=O)C(NC(N)=O)Cc2cc(NC(=O)OC3CCCC3)cc(Oc3cccc(C(F)(F)F)n3)c21` (centres unmarked) [Example 5, cyclopentyl (1-methyl-2-oxo-8-((6-trifluoromethylpyridin-2-yl)oxy)-3-ureido-1,2,3,4-tetrahydroquinoline-6-yl)carbamate] here?
A: The IC50 was less than 3 µM.

Q: How did the IC50 turn out when `C[C@H](OC(=O)Nc1cc2c(c(Oc3cccc(C(F)(F)F)n3)c1)N(C)C(=O)C(NC(N)=O)C2)C(F)(F)F` (stereo partly drawn) [Example 6, (S)-1,1,1-trifluoropropan-2-yl (1-methyl-2-oxo-8-((6-trifluoromethylpyridin-2-yl)oxy)-3-ureido-1,2,3,4-tetrahydroquinoline-6-yl)carbamate] was run?
A: Its IC50 is less than 3 µM.

Q: For `CN1C(=O)C(NC(N)=O)Cc2cc(NC(=O)OCC3CC3)cc(Oc3cccc(C(F)(F)F)n3)c21` (centres unmarked) [Example 7, cyclopropylmethyl (1-methyl-2-oxo-8-((6-(trifluoromethyl)pyridin-2-yl)oxy)-3-ureido-1,2,3,4-tetrahydroquinoline-6-yl)carbamate], which IC50 is on record?
A: Its IC50 is less than 3 µM.

Q: Which IC50 does the source give for `CN1C(=O)C(NC(N)=O)Cc2cc(NC(=O)OC3(C)CC3)cc(Oc3cccc(C(F)(F)F)n3)c21` (centres unmarked) [Example 8, 1-methylcyclopropyl (1-methyl-2-oxo-8-((6-(trifluoromethyl)pyridin-2-yl)oxy)-3-ureido-1,2,3,4-tetrahydroquinoline-6-yl)carbamate] here?
A: The IC50 was less than 3 µM.

Q: With `CC(C)OC(=O)Nc1cc2c(c(Oc3cccc(C(F)(F)F)n3)c1)N(C)C(=O)C(NC(N)=O)C2` (centres unmarked) [Example 9, isopropyl (1-methyl-2-oxo-8-((6-trifluoromethylpyridin-2-yl)oxy)-3-ureido-1,2,3,4-tetrahydroquinoline-6-yl)carbamate] as the compound, how does the IC50 read?
A: Its IC50 is less than 3 µM.

Q: With `CN1C(=O)C(CNC(N)=O)Cc2cccc(Oc3ccccc3)c21` (centres unmarked) [Example 10, 1-((1-methyl-2-oxo-8-phenoxy-1,2,3,4-tetrahydroquinoline-3-yl)methyl)urea] as the compound, how does the IC50 read?
A: The IC50 was 3 to 30 µM.

Q: Which IC50 does the source give for `CN1C(=O)[C@H](NC(N)=O)Cc2cccc(C(=O)c3ccccc3Cl)c21` [Example 11, (R)-1-(8-(2-chlorobenzoyl)-1-methyl-2-oxo-1,2,3,4-tetrahydroquinoline-3-yl)urea] here?
A: Its IC50 is less than 3 µM.

Q: For `CN1C(=O)[C@H](NC(N)=O)Cc2cccc(C(O)c3ccccc3Cl)c21` (stereo partly drawn) [Example 12, 1-((3R)-8-((2-chlorophenyl)(hydroxy)methyl)-1-methyl-2-oxo-1,2,3,4-tetrahydroquinoline-3-yl)urea], which IC50 is on record?
A: The IC50 was greater than 30 µM.

Q: How did the IC50 turn out when `C=C(c1ccccc1Cl)c1cccc2c1N(C)C(=O)[C@H](NC(N)=O)C2` [Example 13, (R)-1-(8-(1-(2-chlorophenyl)vinyl)-1-methyl-2-oxo-1,2,3,4-tetrahydroquinoline-3-yl)urea] was run?
A: The IC50 was less than 3 µM.

Q: For `CN1C(=O)C(NC(N)=O)Cc2cccc(C(C)(C)c3ccccc3)c21` (centres unmarked) [Example 14, 1-(1-methyl-2-oxo-8-(2-phenylpropan-2-yl)-1,2,3,4-tetrahydroquinoline-3-yl)urea], which IC50 is on record?
A: Its IC50 is 3 to 30 µM.

Q: `CC1(c2ccccc2)CC(C)(C)N2C(=O)[C@H](NC(N)=O)Cc3cccc1c32` (stereo partly drawn) [Example 15, 1-((2R)-5,5,7-trimethyl-3-oxo-7-phenyl-2,3,6,7-tetrahydro-1H,5H-pyrido[3,2,1-ij]quinolin-2-yl)urea] was tested. Which IC50 did it give?
A: The IC50 was less than 3 µM.

Q: For `CC1(c2ccccc2)CCN2C(=O)[C@H](NC(N)=O)Cc3cccc1c32` (stereo partly drawn) [Example 16, 1-((2R)-7-methyl-3-oxo-7-phenyl-2,3,6,7-tetrahydro-1H,5H-pyrido[3,2,1-ij]quinoline-2-yl)ur ea], which IC50 is on record?
A: The IC50 was 3 to 30 µM.

Q: For `CC1(c2ccccc2)C(=O)C(C)(C)N2C(=O)[C@H](NC(N)=O)Cc3cccc1c32` (stereo partly drawn) [Example 17, 1-((2R)-5,5,7-trimethyl-3,6-dioxo-7-phenyl-2,3,6,7-tetrahydro-1H,5H-pyrido[3,2,1-ij]quinoline-2-yl)urea], which IC50 is on record?
A: Its IC50 is less than 3 µM.

Q: With `CN1C(=O)[C@H](NC(N)=O)Cc2cccc(OCc3ccccc3)c21` [Example 18, (R)-1-(8-(benzyloxy)-1-methyl-2-oxo-1,2,3,4-tetrahydroquinoline-3-yl)urea] as the compound, how does the IC50 read?
A: The IC50 was greater than 30 µM.

Q: With `Cc1ccc2c(c1Oc1cc(F)ccc1Cl)N(C)C(=O)[C@H](NC(=O)N1CCOCC1)C2` [Example 19, (R)-N-(8-(2-chloro-5-fluorophenoxy)-1,7-dimethyl-2-oxo-1,2,3,4-tetrahydroquinoline-3-yl)m orpholine-4-carboxamide] as the compound, how does the IC50 read?
A: The IC50 was less than 3 µM.

Q: Which IC50 does the source give for `Cc1ccc2c(c1Oc1cc(F)ccc1Cl)N(C)C(=O)[C@H](NC(=O)c1ccccc1)C2` [Example 20, (R)-N-(8-(2-chloro-5-fluorophenoxy)-1,7-dimethyl-2-oxo-1,2,3,4-tetrahydroquinoline-3-yl)b enzamide] here?
A: The IC50 was less than 3 µM.

Q: With `COC(=O)N[C@@H]1Cc2cccc(Oc3cc(F)ccc3Cl)c2N(C)C1=O` [Example 22, methyl (R)-(8-(2-chloro-5-fluorophenoxy)-1-methyl-2-oxo-1,2,3,4-tetrahydroquinoline-3-yl)carbamate] as the compound, how does the IC50 read?
A: Its IC50 is less than 3 µM.

Q: How did the IC50 turn out when `CN1C(=O)[C@H](NS(N)(=O)=O)Cc2cccc(Oc3cc(F)ccc3Cl)c21` [Example 23] was run?
A: Its IC50 is less than 3 µM.

Q: How did the IC50 turn out when `CN1C(=O)[C@H](N2CCNC2=O)Cc2cccc(Oc3cc(F)ccc3Cl)c21` [Example 24, (R)-8-(2-chloro-5-fluorophenoxy)-1-methyl-3-(2-oxoimidazolidine-1-yl)-3,4-dihydroquinoline-2(1H)-one] was run?
A: The IC50 was 3 to 30 µM.

Q: With `CN1C(=O)[C@H](N2CCOC2=O)Cc2cccc(Oc3cc(F)ccc3Cl)c21` [Example 25, (R)-3-(8-(2-chloro-5-fluorophenoxy)-1-methyl-2-oxo-1,2,3,4-tetrahydroquinoline-3-yl)oxazo lidine-2-one] as the compound, how does the IC50 read?
A: The IC50 was greater than 30 µM.

Q: `CN1C(=O)C(OC(N)=O)Cc2cccc(Oc3cc(F)ccc3Cl)c21` (centres unmarked) [Example 26, 8-(2-chloro-5-fluorophenoxy)-1-methyl-2-oxo-1,2,3,4-tetrahydroquinoline-3-yl carbamate] was tested. Which IC50 did it give?
A: Its IC50 is less than 3 µM.

Q: How did the IC50 turn out when `CN1C(=S)C(NC(N)=O)Cc2cccc(Oc3cc(F)ccc3Cl)c21` (centres unmarked) [Example 27, 1-(8-(2-chloro-5-fluorophenoxy)-1-methyl-2-thioxo-1,2,3,4-tetrahydroquinoline-3-yl)urea] was run?
A: Its IC50 is less than 3 µM.

Q: For `NC(=O)NC1Cc2cccc(Oc3cc(F)ccc3Cl)c2-n2ccnc21` (centres unmarked) [Example 28, 1-(9-(2-chloro-5-fluorophenoxy)-4,5-dihydroimidazo[1,2-a]quinoline-4-yl)urea], which IC50 is on record?
A: Its IC50 is 3 to 30 µM.

Q: `Cc1cnc2n1-c1c(cccc1Oc1cc(F)ccc1Cl)CC2NC(N)=O` (centres unmarked) [Example 29, 1-(9-(2-chloro-5-fluorophenoxy)-1-methyl-4,5-dihydroimidazo[1,2-a]quinolin-4-yl)urea] was tested. Which IC50 did it give?
A: Its IC50 is 3 to 30 µM.

Q: How did the IC50 turn out when `CC(c1ccccc1)c1cccc2c1N(C)C(=O)N(CC(N)=O)C2` (centres unmarked) [Example 30, 2-(1-methyl-2-oxo-8-(1-phenylethyl)-1,4-dihydroquinazoline-3(2H)-yl)acetamide] was run?
A: Its IC50 is greater than 30 µM.

Q: With `Cc1ccc2cc(NC(N)=O)c(=O)n(C)c2c1Oc1cc(F)ccc1Cl` [Example 31, 1-(8-(2-chloro-5-fluorophenoxy)-1,7-dimethyl-2-oxo-1,2-dihydroquinoline-3-yl)urea] as the compound, how does the IC50 read?
A: The IC50 was greater than 30 µM.

Q: `Cc1ccc2c(c1Oc1cc(F)ccc1Cl)N(C)C(=O)C1(NC(N)=O)CC21` (centres unmarked) [Example 32, 1-(4-(2-chloro-5-fluorophenoxy)-3,5-dimethyl-2-oxo-1,2,3,7b-tetrahydro-1aH-cyclopropa[c]quinoline-1a-yl)urea] was tested. Which IC50 did it give?
A: Its IC50 is 3 to 30 µM.
